Results reported in US12077503B2, “Substituted cyclic amides and their use as herbicides” (FMC CORPORATION, priority 2015, dated 2024).
Like-named read-outs stand apart in the source and are kept apart here.

How the values were obtained:
Format in all cases: in vivo
[1] = test system: ragweed (common ragweed, Ambrosia elatior); experiment: Test A postemergence; settings: Ambrosia artemisiifolia, post-emergence, 240 h, 125 g ai/ha, postemergence; visual injury after approximately 10 d; 0 to 100 scale (0 no effect, 100 complete control); read-out: Plant response rating, Ragweed
In short: (§1)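 Preemergence directed soil spray on seeded pots, or postemergence application to plants 2–10 cm, one- to two-leaf. Solvent mixture non-phytotoxic, with surfactant. Scored ~10 d later, visually, 0–100 vs untreated.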

[2] = test system: ryegrass, Italian (Italian ryegrass, Lolium multiflorum); experiment: Test A postemergence; settings: Lolium multiflorum, post-emergence, 240 h, 125 g ai/ha, postemergence; visual injury after approximately 10 d; 0 to 100 scale (0 no effect, 100 complete control); read-out: Plant response rating, Ryegrass, Italian
In short: as §1

[3] = test system: wheat (Triticum aestivum); experiment: Test A postemergence; settings: Triticum aestivum, post-emergence, 240 h; for plant injury at 125 g/ha: 125 g ai/ha; for plant injury at 500 g/ha: 500 g ai/ha, visual injury, approx. 10 d
In short: as §1

[4] = test system: Galium (catchweed bedstraw, Galium aparine); experiment: Test A postemergence; settings: Galium, post-emergence, 240 h, 125 g ai/ha, postemergence; visual injury after approximately 10 d; 0 to 100 scale (0 no effect, 100 complete control); read-out: Plant response rating, Galium
In short: as §1

[5] = test system: pigweed (Amaranthus retroflexus); experiment: Test A postemergence; settings: Amaranthus retroflexus, post-emergence, 240 h; for pest or weed control at 125 g/ha: 125 g ai/ha; for pest or weed control at 500 g/ha: 500 g ai/ha, visual injury, approx. 10 d
In short: as §1

[6] = test system: barnyardgrass (Echinochloa crus-galli); experiment: Test A postemergence; settings: Echinochloa crus-galli, post-emergence, 240 h; for pest or weed control at 125 g/ha: 125 g ai/ha; for pest or weed control at 500 g/ha: 500 g ai/ha, visual injury, approx. 10 d
In short: as §1

[7] = test system: corn (Zea mays); experiment: Test A postemergence; settings: Zea mays, post-emergence, 240 h; for plant injury at 125 g/ha / Corn plant response rating (crop injury, 0 = no effect, 100 = complete kill) at 500 g/ha: Postemergence; for plant injury at 125 g/ha: visual rating about 10 d after treatment, read-out: Corn plant response rating (0 to 100 scale); for Corn plant response rating (crop injury, 0 = no effect, 100 = complete kill) at 500 g/ha: 500 g ai/ha, visual injury, approx. 10 d
In short: as §1

[8] = test system: blackgrass (Alopecurus myosuroides); experiment: Test A postemergence; settings: Alopecurus myosuroides, post-emergence, 240 h, 125 g ai/ha, postemergence; visual injury after approximately 10 d; 0 to 100 scale (0 no effect, 100 complete control); read-out: Plant response rating, Blackgrass
In short: as §1

[9] = test system: giant foxtail (Setaria faberii); experiment: Test A postemergence; settings: Setaria faberi, post-emergence, 240 h; for pest or weed control at 125 g/ha: 125 g ai/ha; for pest or weed control at 500 g/ha: 500 g ai/ha, visual injury, approx. 10 d
In short: as §1

[10] = test system: ragweed (common ragweed, Ambrosia elatior); experiment: Test A preemergence; settings: Ambrosia artemisiifolia, pre-emergence, 240 h, preemergence, read-out: Plant response rating, Ragweed
In short: as §1

[11] = test system: ryegrass, Italian (Italian ryegrass, Lolium multiflorum); experiment: Test A preemergence; settings: Lolium multiflorum, pre-emergence, 240 h, 125 g ai/ha, preemergence; visual rating after approx. 10 d; 0 to 100 scale where 0 is no effect and 100 is complete control; read-out: Plant response rating, Ryegrass, Italian
In short: as §1

[12] = test system: pigweed (Amaranthus retroflexus); experiment: Test A preemergence; settings: Amaranthus retroflexus, pre-emergence, 240 h, read-out: Plant response rating, Pigweed; for pest or weed control at 125 g/ha: 125 g ai/ha; for pest or weed control at 500 g/ha: 500 g ai/ha
[13] = test system: barnyardgrass (Echinochloa crus-galli); experiment: Test A preemergence; settings: Echinochloa crus-galli, pre-emergence, 240 h, read-out: Plant response rating, Barnyardgrass; for pest or weed control at 125 g/ha: 125 g ai/ha; for pest or weed control at 500 g/ha: 500 g ai/ha
In short: as §1

[14] = test system: giant foxtail (Setaria faberii); experiment: Test A preemergence; settings: Setaria faberi, pre-emergence, 240 h, read-out: Plant response rating, Foxtail, Giant; for pest or weed control at 125 g/ha: 125 g ai/ha; for pest or weed control at 500 g/ha: 500 g ai/ha
In short: as §1

[15] = test system: Kochia (Kochia scoparia); experiment: Test A preemergence; settings: Bassia scoparia, pre-emergence, 240 h, preemergence, read-out: Plant response rating, Kochia
In short: as §1

[16] = 125 g ai/ha, visual rating after approx. 10 d, 0 to 100 scale where 0 is no effect and 100 is complete control
[17] = 500 g ai/ha, 0 to 100 scale, 0 = no effect, 100 = complete control
[18] = preemergence, visual rating after approx. 10 d, 0 to 100 scale where 0 is no effect and 100 is complete control
[19] = preemergence, 0 to 100 scale, 0 = no effect, 100 = complete control
[20] = Postemergence, visual rating about 10 d after treatment, read-out: Wheat plant response rating (0 to 100 scale)
[21] = Postemergence, 0 to 100 scale (0 no effect, 100 complete control), read-out: Plant response rating, Wheat
[22] = Postemergence, visual rating about 10 d after treatment, read-out: Pigweed plant response rating (0 to 100 scale)
[23] = Postemergence, 0 to 100 scale (0 no effect, 100 complete control), read-out: Plant response rating, Pigweed
[24] = Postemergence, visual rating about 10 d after treatment, read-out: Barnyardgrass plant response rating (0 to 100 scale, 0 no effect, 100 complete control)
[25] = Postemergence, 0 to 100 scale (0 no effect, 100 complete control), read-out: Plant response rating, Barnyardgrass
[26] = 0 to 100 scale (0 no effect, 100 complete control)
[27] = Postemergence, visual rating about 10 d after treatment, read-out: Foxtail, Giant plant response rating (0 to 100 scale)
[28] = Postemergence, 0 to 100 scale (0 no effect, 100 complete control), read-out: Plant response rating, Foxtail, Giant
[29] = preemergence, 0 to 100 scale (0 no effect, 100 complete control)
[30] = Preemergence, 0 to 100 scale (0 no effect, 100 complete control)

SMILES	plant injury at 125 g/ha [3, 20]	plant injury at 500 g/ha [3, 21]	pest or weed control at 125 g/ha [5, 22]	pest or weed control at 500 g/ha [5, 23]	pest or weed control at 125 g/ha [6, 24]	pest or weed control at 500 g/ha [6, 25]	plant injury at 125 g/ha ([7]; 125 g ai/ha)	Corn plant response rating (crop injury, 0 = no effect, 100 = complete kill) at 500 g/ha [7, 26]	pest or weed control at 125 g/ha [9, 27]	pest or weed control at 500 g/ha [9, 28]	pest or weed control at 500 g/ha [12, 29]	pest or weed control at 125 g/ha [12, 30]	pest or weed control at 500 g/ha [13, 29]	pest or weed control at 125 g/ha [13, 30]	pest or weed control at 500 g/ha [14, 29]	pest or weed control at 125 g/ha [14, 30]	further results
CN1CC(c2cccc(OC/C=C/Cl)c2)C(C(=O)Nc2cccc(F)c2F)C1=O (stereo not shown) [Compound 772]	–	–	–	–	–	–	–	–	–	–	–	–	–	–	–	–	pest or weed control at 125 g/ha [1]: 0%; pest or weed control at 125 g/ha [2]: 0%; plant injury at 125 g/ha ([3]; postemergence, visual injury after approximately 10 d, 0 to 100 scale (0 no effect, 100 complete control), read-out: Plant response rating, Wheat): 0%; pest or weed control at 125 g/ha [4]: 0%; pest or weed control at 125 g/ha ([5]; postemergence, visual injury after approximately 10 d, 0 to 100 scale (0 no effect, 100 complete control), read-out: Plant response rating, Pigweed): 0%; pest or weed control at 125 g/ha ([6]; postemergence, visual injury after approximately 10 d, 0 to 100 scale (0 no effect, 100 complete control), read-out: Plant response rating, Barnyardgrass): 0%; Corn plant response rating (crop injury, 0 = no effect, 100 = complete kill) at 125 g/ha ([7]; 125 g ai/ha, postemergence, visual injury after approximately 10 d, 0 to 100 scale (0 no effect, 100 complete control)): 0%; pest or weed control at 125 g/ha [8]: 0%; pest or weed control at 125 g/ha ([9]; postemergence, visual injury after approximately 10 d, 0 to 100 scale (0 no effect, 100 complete control), read-out: Plant response rating, Foxtail, Giant): 30%; pest or weed control at 125 g/ha [10, 16]: 0%; pest or weed control at 500 g/ha [10, 17]: 0%; pest or weed control at 125 g/ha [11]: 0%; pest or weed control at 125 g/ha [12, 18]: 0%; pest or weed control at 500 g/ha [12, 19]: 0%; pest or weed control at 125 g/ha [13, 18]: 0%; pest or weed control at 500 g/ha [13, 19]: 40%; pest or weed control at 125 g/ha [14, 18]: 50%; pest or weed control at 500 g/ha [14, 19]: 90%; pest or weed control at 125 g/ha [15, 16]: 0%; pest or weed control at 500 g/ha [15, 17]: 30%
O=C1NCC(c2ccccc2)C1C(=O)Nc1cc(F)ccc1F (stereo not shown) [Compound 1359]	0%	0%	0%	0%	0%	0%	0%	0%	0%	0%	0%	0%	0%	0%	0%	0%	–
O=C1NCC(c2ccccc2)C1C(=O)Nc1ccc(C(F)(F)F)cc1 (stereo not shown) [Compound 1362]	0%	0%	0%	0%	0%	0%	0%	0%	0%	0%	0%	0%	0%	0%	0%	0%	–
